Assay results from US20130203817A1, “Novel Inhibitors of LYN Kinase” (VASSA INFORMATICS, priority 2012, published 2013).

Key:
Lyn(h) = Lyn(h) (Homo sapiens, UniProt P07948); assay: Millipore kinase profiling, Lyn; format: biochemical; details: VI201 at 100 μM
Description: (§1) The three compounds identified in Example 1 were tested for kinase activity at Millipore (Dundee UK). The compounds were shipped as 10 mM stocks in DMSO as per Millipore testing standards. The testing consisted of two initial phases:
(§2) (a) Profiling against a set of approximately 60 kinases, selected as representative of all kinases and current kinase drug targets, to determine the selectivity of the compounds; and, (b) IC50 testing against EGFR, the kinase target of the initial search template molecule.
(§3) In particular, compound VI201 inhibited three kinases, in one case restricting the activity to about 20% at 100 μM concentration (Table 1).

Abl kinase (BCR-Abl) = Abl kinase (BCR-Abl) (Homo sapiens, UniProt P00519); assay: Kinase profiling, Abl; format: biochemical; details: VI201 at 100 μM
Description: as §1, §2

GSK3β kinase = GSK3β kinase (Homo sapiens, UniProt P49841); assay: Kinase profiling, GSK3β; format: biochemical; details: VI201 at 100 μM
Description: as §1, §2

Pim-1(h) = Pim-1(h) (Homo sapiens, UniProt P11309); assay: Millipore kinase profiling, Pim-1; format: biochemical; details: VI201 at 100 μM
Description: as §1, §2, §3

WNK3(h) = WNK3(h) (Homo sapiens, UniProt Q9BYP7); assay: Millipore kinase profiling, WNK3; format: biochemical; details: VI201 at 100 μM
Description: as §1, §2, §3

[1] = test system: mesenchymal breast cancer lines; details: at concentrations that inhibit LYN kinase activity; cited from earlier work
[2] = test system: phosphorylated (activated) LYN; details: BT549 cells, Western blot; cited from earlier work

Chain of WNK3(h) (Q9BYP7 whole entry): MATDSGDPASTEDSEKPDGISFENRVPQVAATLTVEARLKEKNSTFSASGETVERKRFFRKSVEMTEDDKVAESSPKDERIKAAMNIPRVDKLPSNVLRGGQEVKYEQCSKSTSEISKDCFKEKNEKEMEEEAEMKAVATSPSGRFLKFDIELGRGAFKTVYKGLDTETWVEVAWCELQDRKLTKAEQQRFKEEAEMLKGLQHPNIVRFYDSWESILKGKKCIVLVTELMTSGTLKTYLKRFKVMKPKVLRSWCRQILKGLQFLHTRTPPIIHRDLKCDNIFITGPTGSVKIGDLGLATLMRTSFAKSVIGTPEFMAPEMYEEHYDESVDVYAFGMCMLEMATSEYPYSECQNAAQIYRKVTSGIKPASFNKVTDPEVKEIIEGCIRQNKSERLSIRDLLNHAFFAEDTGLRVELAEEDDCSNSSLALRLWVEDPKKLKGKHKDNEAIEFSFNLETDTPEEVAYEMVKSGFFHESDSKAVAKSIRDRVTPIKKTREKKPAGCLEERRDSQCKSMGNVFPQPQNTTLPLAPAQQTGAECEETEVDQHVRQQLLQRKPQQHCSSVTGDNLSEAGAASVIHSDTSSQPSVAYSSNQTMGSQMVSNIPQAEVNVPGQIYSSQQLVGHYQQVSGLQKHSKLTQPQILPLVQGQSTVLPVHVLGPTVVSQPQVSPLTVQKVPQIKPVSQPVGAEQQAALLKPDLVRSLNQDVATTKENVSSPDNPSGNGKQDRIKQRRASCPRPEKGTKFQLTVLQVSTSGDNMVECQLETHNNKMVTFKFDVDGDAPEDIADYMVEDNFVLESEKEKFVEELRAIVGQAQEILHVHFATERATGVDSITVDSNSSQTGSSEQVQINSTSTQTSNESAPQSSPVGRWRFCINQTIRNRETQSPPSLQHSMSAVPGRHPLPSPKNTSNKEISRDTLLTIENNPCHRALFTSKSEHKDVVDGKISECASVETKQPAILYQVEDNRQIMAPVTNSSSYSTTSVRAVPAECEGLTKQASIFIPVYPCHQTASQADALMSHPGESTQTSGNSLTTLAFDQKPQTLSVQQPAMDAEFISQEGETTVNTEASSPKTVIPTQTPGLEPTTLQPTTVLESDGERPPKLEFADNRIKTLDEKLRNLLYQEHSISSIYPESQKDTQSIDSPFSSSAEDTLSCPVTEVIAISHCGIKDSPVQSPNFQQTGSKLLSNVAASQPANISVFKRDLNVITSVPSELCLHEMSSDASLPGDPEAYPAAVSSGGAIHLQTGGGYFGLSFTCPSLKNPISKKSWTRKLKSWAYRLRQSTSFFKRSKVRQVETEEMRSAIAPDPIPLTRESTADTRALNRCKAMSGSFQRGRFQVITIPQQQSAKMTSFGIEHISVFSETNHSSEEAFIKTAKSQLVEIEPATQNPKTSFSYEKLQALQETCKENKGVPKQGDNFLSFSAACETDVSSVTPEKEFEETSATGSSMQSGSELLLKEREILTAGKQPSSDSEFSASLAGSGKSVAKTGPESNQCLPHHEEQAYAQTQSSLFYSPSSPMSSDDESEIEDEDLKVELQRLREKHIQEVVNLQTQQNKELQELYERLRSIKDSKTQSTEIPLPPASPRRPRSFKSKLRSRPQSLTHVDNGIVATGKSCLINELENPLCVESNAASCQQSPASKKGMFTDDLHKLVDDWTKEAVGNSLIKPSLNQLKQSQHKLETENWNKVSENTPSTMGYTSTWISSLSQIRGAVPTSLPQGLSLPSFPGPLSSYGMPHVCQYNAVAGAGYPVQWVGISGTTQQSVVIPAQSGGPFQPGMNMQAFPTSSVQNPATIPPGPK
Chain of Pim-1(h) (P11309 whole entry): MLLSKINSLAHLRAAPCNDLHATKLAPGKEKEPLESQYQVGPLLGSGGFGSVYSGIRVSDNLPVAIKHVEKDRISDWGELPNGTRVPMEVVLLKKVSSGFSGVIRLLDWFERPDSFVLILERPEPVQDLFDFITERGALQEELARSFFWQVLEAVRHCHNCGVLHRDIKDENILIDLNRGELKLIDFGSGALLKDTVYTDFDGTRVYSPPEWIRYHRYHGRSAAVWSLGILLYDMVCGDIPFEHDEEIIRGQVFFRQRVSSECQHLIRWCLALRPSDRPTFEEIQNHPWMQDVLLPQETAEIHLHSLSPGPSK
Chain of Abl kinase (BCR-Abl) (P00519 27-1130 limits assumed): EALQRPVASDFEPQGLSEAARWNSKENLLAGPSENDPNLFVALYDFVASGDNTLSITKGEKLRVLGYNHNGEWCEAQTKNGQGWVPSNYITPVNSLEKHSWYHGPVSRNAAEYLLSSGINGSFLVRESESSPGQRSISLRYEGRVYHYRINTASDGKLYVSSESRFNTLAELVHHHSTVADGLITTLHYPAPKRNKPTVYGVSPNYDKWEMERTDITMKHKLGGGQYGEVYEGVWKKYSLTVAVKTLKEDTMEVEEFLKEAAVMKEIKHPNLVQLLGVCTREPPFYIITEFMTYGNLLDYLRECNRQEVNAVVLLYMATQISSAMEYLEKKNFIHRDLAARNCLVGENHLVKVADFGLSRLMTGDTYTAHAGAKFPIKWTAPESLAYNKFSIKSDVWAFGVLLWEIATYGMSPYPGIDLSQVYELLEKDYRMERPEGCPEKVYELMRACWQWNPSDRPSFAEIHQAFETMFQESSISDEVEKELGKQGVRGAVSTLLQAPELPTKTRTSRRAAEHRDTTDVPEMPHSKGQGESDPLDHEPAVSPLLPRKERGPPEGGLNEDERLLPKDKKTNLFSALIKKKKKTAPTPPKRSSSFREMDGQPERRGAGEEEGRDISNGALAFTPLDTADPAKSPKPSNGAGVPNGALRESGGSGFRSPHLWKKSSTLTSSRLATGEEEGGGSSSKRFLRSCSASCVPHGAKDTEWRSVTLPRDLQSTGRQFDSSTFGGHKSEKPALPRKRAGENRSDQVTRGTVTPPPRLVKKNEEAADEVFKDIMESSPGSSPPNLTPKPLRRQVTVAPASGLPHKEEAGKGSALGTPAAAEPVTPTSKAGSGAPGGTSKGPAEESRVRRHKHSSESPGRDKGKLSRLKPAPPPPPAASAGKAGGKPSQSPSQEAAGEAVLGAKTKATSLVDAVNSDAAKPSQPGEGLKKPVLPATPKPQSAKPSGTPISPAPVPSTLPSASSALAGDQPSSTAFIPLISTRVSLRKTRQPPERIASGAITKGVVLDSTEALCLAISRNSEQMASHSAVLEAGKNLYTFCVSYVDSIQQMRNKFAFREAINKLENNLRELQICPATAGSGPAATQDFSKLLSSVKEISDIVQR
Chain of Lyn(h) (P07948 1-491 isoform P07948-2): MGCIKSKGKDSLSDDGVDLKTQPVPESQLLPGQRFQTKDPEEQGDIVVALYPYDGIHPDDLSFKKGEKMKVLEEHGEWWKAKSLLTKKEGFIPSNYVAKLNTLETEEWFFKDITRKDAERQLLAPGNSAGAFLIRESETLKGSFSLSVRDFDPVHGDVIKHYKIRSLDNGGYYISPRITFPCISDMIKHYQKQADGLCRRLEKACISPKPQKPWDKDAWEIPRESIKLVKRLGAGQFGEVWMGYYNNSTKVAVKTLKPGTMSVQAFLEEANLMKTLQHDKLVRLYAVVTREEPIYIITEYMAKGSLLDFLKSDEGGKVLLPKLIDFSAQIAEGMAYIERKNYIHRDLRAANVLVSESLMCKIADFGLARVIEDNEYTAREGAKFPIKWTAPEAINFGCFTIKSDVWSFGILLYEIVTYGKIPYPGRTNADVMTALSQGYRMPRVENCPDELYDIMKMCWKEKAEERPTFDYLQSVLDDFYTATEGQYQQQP
Chain of GSK3β kinase (P49841 whole entry): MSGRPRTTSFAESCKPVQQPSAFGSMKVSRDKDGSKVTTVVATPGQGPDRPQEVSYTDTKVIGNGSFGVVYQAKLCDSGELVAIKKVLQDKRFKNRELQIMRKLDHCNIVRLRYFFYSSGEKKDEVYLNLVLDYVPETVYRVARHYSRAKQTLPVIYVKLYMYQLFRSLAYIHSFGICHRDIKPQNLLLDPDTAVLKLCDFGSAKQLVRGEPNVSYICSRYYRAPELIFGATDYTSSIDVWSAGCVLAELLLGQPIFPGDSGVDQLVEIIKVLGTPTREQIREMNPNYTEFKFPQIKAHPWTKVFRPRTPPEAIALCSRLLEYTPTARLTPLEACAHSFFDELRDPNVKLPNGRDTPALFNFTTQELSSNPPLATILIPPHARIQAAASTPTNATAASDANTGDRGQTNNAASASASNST

inhibition of LYN kinase (Lyn(h)) [%] | inhibition of Abl kinase (BCR-Abl) (Abl kinase (BCR-Abl)) [%] | inhibition of GSK3β kinase (GSK3β kinase) [%] | inhibition of Pim-1 kinase (Pim-1(h)) [%] | inhibition of WNK3 kinase (WNK3(h)) [%] | Compound | cell invasion [1] | cell proliferation [1] | phosphorylated (activated) LYN [2]
82 | 5 | 26 | 44 | 37 | N-(2,3-dimethylphenyl)-3-(3-(pyridin-2-yl)-1,2,4-thiadiazol-5-yl)propanamide [VI201] | – | – | –
– | – | – | – | – | Cc1nc(Nc2ncc(C(=O)Nc3c(C)cccc3Cl)s2)cc(N2CCN(CCO)CC2)n1 [Dasatinib, N-(2-chloro-6-methylphenyl)-2-[[6-[4-(2-hydroxyethyl)-1-piperazinyl]-2-methyl-4-pyrimidinyl]amino]-5-thiazole carboxamide] | blocked invasion | not proliferation | decreased phosphorylated (activated) LYN
